# Structures can show the parent of a compound that is named as a salt.
# Tested on: kidney
# Assay: Transcriptional profiling on Affymetrix GeneChips, single dose, naïve mice: kidney
# Type: in vivo, C57BL/6 mice
# Conditions: 100MMF-vs-Veh
# Protocol: Treated mice were sacrificed at 2, 7, or 12 hours. Tissues (liver, spleen, kidney, jejunum, cortex, hippocampus, striatum and whole blood) were collected and analyzed by transcriptional profiling on mouse Affymetrix GeneChips.
# Tissues (liver, spleen, kidney, jejunum, cortex, hippocampus, striatum and whole blood) were collected and analyzed by transcriptional profiling on mouse Affymetrix GeneChips.
# Animals were exposed to CO2 and whole blood collected via cardiac puncture. Two 100 μl aliquots of whole blood were collected in 1.5 mL microcentrifuge tubes and snap frozen in liquid nitrogen. Peripheral (liver, spleen, kidney and jejunum) and CNS brain (cerebellum, hippocampus, striatum and cortex) tissues were harvested and snap frozen in liquid nitrogen, with special care taken to collect tissues of similar size and from the same location. All samples were stored at −80° C. until RNA extraction was conducted.
# For RNA preparation, frozen tissues were placed in 2 mL RNAse-free 96-well blocks with 1.5 mL QIAzol Lysis Reagent (QIAgen) and a 3.2 mm stainless steel bead (BioSpec Products, Bartlesville, Okla.). Tissues were disrupted for four cycles of 45 seconds in a Mini-Beadbeater (Biospec Products). RNA was extracted in chloroform and the aqueous phase was mixed with an equal volume of 70% ethanol. Extracted RNA was applied to RNeasy 96 plates and purified by the spin method according to the manufacturer's protocol (RNeasy 96 Universal Tissue Protocol, QIAgen, Hilden Germany).
# Automated sample amplifications and biotin labelings were carried out using the NuGEN Ovation RNA Amplification system V2 (Cat #3100), Ovation WB reagent (Cat #1300) and Encore Biotin module (Cat #4200) (NuGEN Technologies, Inc, San Carlos, Calif.) according to manufacturer's recommendations using an Arrayplex automated liquid handler (Beckman Coulter, Indianapolis, Ind.). Two micrograms of biotin labeled sscDNA probe were hybridized to Affymetrix GeneChip Affymetrix HT_MG-430_PM plate arrays with modified conditions as described in Allaire et al. Washing and staining of the hybridized arrays were completed as described in the GeneChip Expression analysis technical manual for HT plate arrays using the Genechip® Array Station (Affymetrix, Santa Clara, Calif.) with modifications as described in Allaire et al. The processed GeneChip® plate arrays were scanned using GeneTitan scanner (Affymetrix, Santa Clara, Calif.).
# Affymetrix scans were subject to quality control (QC) measures. These tests included a visual inspection of the distribution of raw signal intensities and an assessment of RNA degradation, relative log expression (RLE), and normalized unsealed standard error (NUSE). All sample scans that passed these QC metrics were included in the analysis.
# All CEL files were subjected to GC-content-based Robust Multi-array Average (GCRMA) normalization (version 2.20.0) (Irizarry R A, et al. Nucleic Acids Res 2003; 31:e15; Li C, et al. Genome Biol 2001; 2:[…]0032). Expression levels were log (base 2) transformed.
# All calculations and analyses were carried out using R (version 2.11.1) and Bioconductor computational tools (Gentleman R. Springer Science+Business Media 2005).
smiles,measurement,setting,value
"COC(=O)/C=C/C(=O)O [MMF, monomethyl fumarate]",FC 1456319_PM_at,2 h,−2.06
same,FC 1456955_PM_at,2 h,1.60
same,FC 1457189_PM_at,2 h,−1.70
same,FC 1457586_PM_at,2 h,1.61
same,FC 1458096_PM_at,2 h,−1.87
same,FC 1458798_PM_at,2 h,−1.56
same,FC 1459091_PM_at,2 h,2.78
same,FC 1459358_PM_at,2 h,1.56
same,FC 1459516_PM_at,2 h,1.71
same,FC 1459774_PM_at,2 h,1.63
same,FC A330023F24Rik 1460033_PM_at,2 h,1.50
same,FC AA986715 1459467_PM_at,2 h,1.68
same,FC Akr1c19 (1455454_PM_at),2 h,1.56
same,FC Ankrd11 1458452_PM_at,2 h,1.56
same,FC Arl5b 1455166_PM_at,2 h,1.64
same,FC BC038331 1458295_PM_at,2 h,−1.57
same,FC Bcl7a 1458503_PM_at,2 h,−1.54
same,FC Cggbp1 1455658_PM_at,2 h,1.51
same,FC Gclc (1455959_PM_s_at),2 h,1.53
same,FC LOC676974 1456909_PM_at,2 h,1.57
same,FC LOC100504796 1457129_PM_at,2 h,−1.55
same,FC Lonrf1 1455665_PM_at,2 h,1.98
same,FC Nufip2 1455387_PM_at,2 h,1.61
same,FC Per3 1458176_PM_at,2 h,−1.57
same,FC Phf13 1455175_PM_at,2 h,1.51
same,FC Pkp2 1460511_PM_at,2 h,1.67
same,FC Ptprg 1456070_PM_at,2 h,−2.31
same,FC Snx29 1456922_PM_at,2 h,−1.74
same,FC Tnfsf10 1459913_PM_at,2 h,−1.60
same,FC Trib3 1456225_PM_x_at,2 h,1.56
same,FC Zfp295 1457552_PM_at,2 h,1.74
same,FC 1110032F04Rik 1456509_PM_at,7 h,4.65
same,FC 1200003I10Rik /// 1200015M12Rik /// A130040M12Rik /// E430024C06Rik 1427932_PM_s_at,7 h,1.63
same,FC 1300002K09Rik 1453234_PM_at,7 h,1.98
same,FC 1444265_PM_at,7 h,1.53
same,FC 1445668_PM_at,7 h,1.55
same,FC 1447396_PM_at,7 h,−1.73
same,FC 1457594_PM_at,7 h,−1.52
same,FC 1459091_PM_at,7 h,3.52
same,FC 2610034E01Rik 1460483_PM_at,7 h,1.56
same,FC Abcc4 1443870_PM_at,7 h,2.09
same,FC Abhd15 1453474_PM_at,7 h,1.64
same,FC Acsl4 1451828_PM_a_at,7 h,1.78
same,FC Agps 1434919_PM_at,7 h,−1.68
same,FC Agxt2l1 1452975_PM_at,7 h,−1.74
same,FC Akr1b8 (1448894_PM_at),7 h,1.86
same,FC Akr1c19 (1455454_PM_at),7 h,1.97
same,FC Alas1 1424126_PM_at,7 h,1.51
same,FC Alcam 1426300_PM_at,7 h,2.66
same,FC Alcam 1426301_PM_at,7 h,2.09
same,FC Alcam 1437467_PM_at,7 h,2.00
same,FC Aldh1a7 (1418601_PM_at),7 h,2.16
same,FC Aox1 (1419435_PM_at),7 h,2.50
same,FC Asns 1433966_PM_x_at,7 h,2.13
same,FC Asns 1451095_PM_at,7 h,2.23
same,FC Atp13a3 1442145_PM_at,7 h,1.52
same,FC BC037032 1444682_PM_at,7 h,1.69
same,FC Bcat1 1430111_PM_a_at,7 h,−1.59
same,FC Bcat1 1450871_PM_a_at,7 h,−1.83
same,FC Bcat1 1455699_PM_at,7 h,−2.29
same,FC Blvrb (1451386_PM_at),7 h,1.83
same,FC Btg1 1442018_PM_at,7 h,1.60
same,FC Cbr1 (1460196_PM_at),7 h,1.58
same,FC Cbr3 (1427912_PM_at),7 h,9.54
same,FC Cenpe 1435005_PM_at,7 h,−1.60
same,FC Cml3 1421609_PM_a_at,7 h,−1.64
same,FC Copg2as2 1427123_PM_s_at,7 h,1.56
same,FC Ctps 1416563_PM_at,7 h,1.57
same,FC Cul9 1439866_PM_at,7 h,−1.52
same,FC Cyp51 1422533_PM_at,7 h,−1.54
same,FC Cyp51 1422534_PM_at,7 h,−1.59
same,FC D16Ertd778e 1445089_PM_at,7 h,−1.87
same,FC D330040H18Rik 1444432_PM_at,7 h,1.77
same,FC Dbp (1418174_PM_at),7 h,−1.73
same,FC Dbp (1438211_PM_s_at),7 h,−1.63
same,FC Ddit4l 1439332_PM_at,7 h,1.83
same,FC Ddit4l 1444139_PM_at,7 h,1.85
same,FC Ddit4l 1451751_PM_at,7 h,2.62
same,FC Dnase2a (1430135_PM_at),7 h,2.20
same,FC Dusp5 1437199_PM_at,7 h,1.74
same,FC Eif4ebp1 1434976_PM_x_at,7 h,1.56
same,FC Endou 1449937_PM_at,7 h,1.52
same,FC Esr1 1460591_PM_at,7 h,−1.54
same,FC Fam107a 1435918_PM_at,7 h,−1.77
same,FC Fbxl2 1428427_PM_at,7 h,−1.68
same,FC Fgf1 1441042_PM_at,7 h,−1.71
same,FC Fgf1 1450869_PM_at,7 h,−1.76
same,FC Fgfbp1 1419086_PM_at,7 h,1.73
same,FC Frem2 1457038_PM_at,7 h,−1.66
same,FC G0s2 1448700_PM_at,7 h,1.50
same,FC G6pd2 /// G6pdx 1422327_PM_s_at,7 h,1.86
same,FC G6pdx (1448354_PM_at),7 h,1.75
same,FC Gclc (1424296_PM_at),7 h,1.87
same,FC Gclc (1455959_PM_s_at),7 h,1.81
same,FC Gclm 1418627_PM_at,7 h,1.64
same,FC Gdf15 1418949_PM_at,7 h,1.98
same,FC Gimap3 1449220_PM_at,7 h,−1.51
same,FC Gjb1 1448766_PM_at,7 h,1.50
same,FC Gk5 1436210_PM_at,7 h,1.55
same,FC Gm129 1435188_PM_at,7 h,−2.12
same,FC Gm3776 /// Gsta1 /// Gsta2 1421041_PM_s_at,7 h,1.63
same,FC Gpr135 1441944_PM_s_at,7 h,1.66
same,FC Gpr135 1459274_PM_at,7 h,1.53

# From patent US20160115540A1, “PRODRUGS AND DRUGS” (Biogen MA Inc., priority 2013, published 2016)
